The results in this text go back to US20230150995A1, “HETEROARYL-METHYL SUBSTITUTED TRIAZOLES” (Hoffmann-La Roche Inc., priority 2020, published 2023).

Each structure is given as a SMILES string.

For this assay, the target named is T1, human V1a receptor (Homo sapiens, UniProt P37288).
T1 construct: expressed in transfected cells; host or cells: HEK293 cells, transiently transfected; cell membranes
T1 sequence (P37288 whole entry): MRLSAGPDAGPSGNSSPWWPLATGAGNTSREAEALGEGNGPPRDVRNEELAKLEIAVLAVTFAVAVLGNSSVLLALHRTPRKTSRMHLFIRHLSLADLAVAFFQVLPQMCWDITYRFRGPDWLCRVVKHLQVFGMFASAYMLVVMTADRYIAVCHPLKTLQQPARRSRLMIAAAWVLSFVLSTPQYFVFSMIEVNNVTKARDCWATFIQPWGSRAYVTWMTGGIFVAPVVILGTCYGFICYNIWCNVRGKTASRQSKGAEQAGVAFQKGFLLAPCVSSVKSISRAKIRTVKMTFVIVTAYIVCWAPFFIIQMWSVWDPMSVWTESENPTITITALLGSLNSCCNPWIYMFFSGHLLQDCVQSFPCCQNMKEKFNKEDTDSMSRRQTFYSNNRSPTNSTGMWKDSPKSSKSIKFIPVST
Put plainly: human V1a receptor binding study (3H-Vasopressin SPA, HEK293 membranes). The settings on record: membranes of HEK293 cells transiently transfected with human V1a receptor, Ki by Cheng-Prusoff, read-out: pKi (hV1a) (converted). How it is done: The human V1a receptor was cloned by RT-PCR from total human liver RNA. The coding sequence was subcloned in an expression vector after sequencing to confirm the identity of the amplified sequence. […] Cell membranes were prepared from HEK293 cells transiently transfected with the expression vector and grown in 20 liter fermenters with the following protocol.
50 g of cells are re-suspended in 30 ml freshly prepared ice cold Lysis buffer (50 mM HEPES, 1 mM EDTA, 10 mM MgCl2 adjusted to pH=7.4+complete cocktail of protease inhibitor (Roche Diagnostics)). Homogenized with Polytron for 1 min and sonicated on ice for 2× 2 minutes at 80% intensity (Vibracell sonicator). The preparation is centrifuged 20 min at 500 g at 4° C., the pellet is discarded and the supernatant centrifuged 1 hour at 43′000 g at 4° C. (19′000 rpm). The pellet is re-suspended in 12.5 ml Lysis buffer+12.5 ml Sucrose 20% and homogenized using a Polytron for 1-2 min. The protein concentration is determined by the Bradford method and aliquots are stored at −80° C. until use. For binding studies 60 mg Yttrium silicate SPA beads (Amersham) are mixed with an aliquot of membrane in binding buffer (50 mM Tris, 120 mM NaCl, 5 mM KCl, 2 mM CaCl2, 10 mM MgCl2) for 15 minutes with mixing. 50 μl of bead/membrane mixture is then added to each well of a 96 well plate, followed by 50 μl of 4 nM 3H-Vasopressin (American Radiolabeled Chemicals). For total binding measurement 100 μl of binding buffer are added to the respective wells, for non-specific binding 100 μl of […] cold vasopressin and for compound testing 100 μl of a serial dilution of each compound in 2% DMSO. The plate is incubated 1 h at room temperature, centrifuged […] at 1000 g and counted on a Packard Top-Count. Non-specific binding counts are subtracted from each well and data is normalized to the maximum specific binding set at 100%. To calculate an IC 50 the curve is fitted using a non-linear regression model (XLfit) and the Ki is calculated using the Cheng-Prussoff equation.
For `Cc1cc(Cc2nnc([C@H]3CC[C@H](Oc4ccccn4)CC3)n2-c2ccc(Cl)cc2)no1` [Example 1, trans-3-[[4-(4-Chlorophenyl)-5-(4-pyridin-2-yloxycyclohexyl)-1,2,4-triazol-3-yl]methyl]-5-methyl-1,2-oxazole], the Ki was 0.17 nM. In the case of `Clc1ccc(-n2c(Cc3ccon3)nnc2[C@H]2CC[C@H](Oc3ccccn3)CC2)cc1` [Example 2, trans-3-[[4-(4-Chlorophenyl)-5-(4-pyridin-2-yloxycyclohexyl)-1,2,4-triazol-3-yl]methyl]-1,2-oxazole] it was 0.229 nM. Under `Clc1ccc(-n2c(Cc3ccno3)nnc2[C@H]2CC[C@H](Oc3ccccn3)CC2)cc1` [Example 3, trans-5-[[4-(4-Chlorophenyl)-5-(4-pyridin-2-yloxycyclohexyl)-1,2,4-triazol-3-yl]methyl]-1,2-oxazole] stands 0.229 nM. In the case of `Clc1ccc(-n2c(Cn3cccn3)nnc2[C@H]2CC[C@H](Oc3ccccn3)CC2)cc1` [Example 4, trans-2-[4-[4-(4-Chlorophenyl)-5-(pyrazol-1-ylmethyl)-1,2,4-triazol-3-yl]cyclohexyl]oxypyridine] it was 0.347 nM; in that of `Clc1ccc(-n2c(Cn3nccn3)nnc2[C@H]2CC[C@H](Oc3ccccn3)CC2)cc1` [Example 5, trans-2-[4-[4-(4-Chlorophenyl)-5-(triazol-2-ylmethyl)-1,2,4-triazol-3-yl]cyclohexyl]oxypyridine], 0.151 nM. For the compound `Clc1ccc(-n2c(Cn3nccn3)nnc2[C@H]2CC[C@@H](Oc3ccccn3)CC2)cc1` [Example 6, cis-2-[4-[4-(4-Chlorophenyl)-5-(triazol-2-ylmethyl)-1,2,4-triazol-3-yl]cyclohexyl]oxypyridine], the Ki is 0.871 nM. In the case of `Clc1ccc(-n2c(Cn3ccnn3)nnc2[C@H]2CC[C@H](Oc3ccccn3)CC2)cc1` [Example 7, trans-2-[4-[4-(4-Chlorophenyl)-5-(triazol-1-ylmethyl)-1,2,4-triazol-3-yl]cyclohexyl]oxypyridine] it was 3.63 nM.

On to `Clc1ccc(-n2c(Cn3ccnc3)nnc2[C@H]2CC[C@H](Oc3ccccn3)CC2)cc1` [Example 8, trans-2-[4-[4-(4-Chlorophenyl)-5-(imidazol-1-ylmethyl)-1,2,4-triazol-3-yl]cyclohexyl]oxypyridine], for which the Ki was 3.63 nM. In the case of `Clc1ccc(-n2c(Cn3cncn3)nnc2[C@H]2CC[C@H](Oc3ccccn3)CC2)cc1` [Example 9, trans-2-[4-[4-(4-Chlorophenyl)-5-(1,2,4-triazol-1-ylmethyl)-1,2,4-triazol-3-yl]cyclohexyl]oxypyridine] it was 7.94 nM; in that of `Clc1ccc(-n2c(Cn3cnnn3)nnc2[C@H]2CC[C@H](Oc3ccccn3)CC2)cc1` [Example 10, trans-2-[4-[4-(4-Chlorophenyl)-5-(tetrazol-1-ylmethyl)-1,2,4-triazol-3-yl]cyclohexyl]oxypyridine], 9.12 nM.
